The text below walks through data of ChEMBL document CHEMBL1121661, “Synthesis and antitumor activity of a series of sulfone analogues of 1,4-naphthoquinone” (1981).

Common to all, as to type: functional
Test [1] has as its system Mus musculus. The test is described as follows: Percent inhibition of Ehrlich ascites carcinoma growth at 5 (mg/kg)/day.
The test system of test [2] is Mus musculus. The test is described as follows: Percent packed cell volume at 5 (mg/kg)/day per mouse.
The test system of test [3] is Mus musculus. In words: Effect of compound on Ehrlich ascites carcinoma growth in CF1 mice at 10 mg/kg per day ip survival at day 9; 3/8. As to conditions: route intraperitoneal.
Test [4] relates to Mus musculus. In words: Percent inhibition of Ehrlich ascites carcinoma growth at 10 mg/kg per day.
The test system of test [5] is Mus musculus. In words: Percent packed cell volume at 5 (mg/kg)/day.
Test [6] relates to Mus musculus. The test is described as follows: Effect of compound on Ehrlich ascites carcinoma growth in CF1 mice at 5 mg/kg per day ip survival at day 9; 5/6. As to conditions: route intraperitoneal.
Test [7] concerns Mus musculus. The test is described as follows: Percent packed cell volume at 10 mg/kg per day per mouse. Also on record: unit not given here.
Test [8] relates to Mus musculus. The test is described as follows: Percent packed cell volume at 10 mg/kg per day.
Test [9] concerns Mus musculus. The test is described as follows: Percent inhibition of Ehrlich ascites carcinoma growth at 200 mg/kg per day.
Test [10] has as its system Mus musculus. The test is described as follows: Effect of compound on Ehrlich ascites carcinoma growth in CF1 mice at 200 mg/kg per day ip survival at day 9; 6/6. As to conditions: route intraperitoneal.
For test [11], the system named is Mus musculus. The test is described as follows: Percent packed cell volume at 200 mg/kg per day.
Test [12] relates to Mus musculus. The test is described as follows: Percent packed cell volume at 200 mg/kg per day per mouse.

The structures appear in SMILES notation.

As for `O=C1C(CO)=CS(=O)(=O)c2ccccc21`, the Inhibition (commonly the change of the read-out against control, counted positive when it falls) in the test on Mus musculus [1] was 95.6%. Besides, the Volume in the test on Mus musculus [2] was found to be 0.07; with Mus musculus [7], 0.4. In addition, the “Survivors at day 9” value is 3 in the test with Mus musculus [3] and 5 with Mus musculus [6]. In addition, the inhibition in vivo (in general, how much of the control response was suppressed) at 10 mg/kg/day in the test on Mus musculus [4] stood at 99.3%. Further, the figures for the “%” value in the test on Mus musculus [5] and in the test on Mus musculus [8] were 4.8 and 0.7, respectively.

In the test with Mus musculus [9], `Sc1ncnc2nc[nH]c12` [MERCAPTOPURINE ANHYDROUS] returned an inhibition in vivo at 200 mg/kg/day of 99.6%. For the same compound, the “Survivors at day 9” value in the test with Mus musculus [10] is recorded as 6. The “%” value with Mus musculus [11] is reported as 0.3. This compound came in with a Volume in the test with Mus musculus [12] of 0.7.
